Laboratory results: ChEMBL document CHEMBL3714742, “Pyrimido (4,5-b) indole derivatives” (2003)
The source made the active and inactive calls. No rule for the calls is given here.

Tests used:
[1] = target: T1, Dual specificity mitogen-activated protein kinase kinase 7 (Homo sapiens, UniProt O14733); assay: Inhibition of GST-tagged human MKK7 expressed in Escherichia coli (BL21(DE3) pLysS) co-expressing human MEKK catalytic domain using biotinylated and GST-tagged rat GST-KN-SAPKalpha substrate incubated for 1 hr by time-resolved fluorescence based assay
T1 sequence (O14733 whole entry): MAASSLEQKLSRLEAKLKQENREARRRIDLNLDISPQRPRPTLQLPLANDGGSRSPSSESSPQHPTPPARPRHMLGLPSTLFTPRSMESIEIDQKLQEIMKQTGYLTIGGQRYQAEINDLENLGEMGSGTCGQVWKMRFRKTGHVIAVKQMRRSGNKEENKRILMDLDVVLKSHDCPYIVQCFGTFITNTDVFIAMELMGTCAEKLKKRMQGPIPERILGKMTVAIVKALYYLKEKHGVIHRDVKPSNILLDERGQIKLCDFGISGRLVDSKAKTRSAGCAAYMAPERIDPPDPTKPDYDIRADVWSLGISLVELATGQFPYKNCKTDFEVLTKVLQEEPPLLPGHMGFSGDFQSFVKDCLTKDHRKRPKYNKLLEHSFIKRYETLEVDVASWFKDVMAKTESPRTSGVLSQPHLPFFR

Mus musculus [2] = assay: Inhibition of anti-CD3 antibody-induced IFNgamma production in Balb/c mouse dosed intravenously 5 mins before anti-CD3 antibody injection and measured 2 hrs post-challenge by ELISA; assay type: functional, organism-based
Mus musculus [3] = assay: Inhibition of anti-CD3 antibody-induced IL4 production in Balb/c mouse dosed intravenously 5 mins before anti-CD3 antibody injection and measured 2 hrs post-challenge by ELISA; assay type: functional, organism-based
Mus musculus [4] = assay: Inhibition of anti-CD3 antibody-induced IL2 production in Balb/c mouse dosed intravenously 5 mins before anti-CD3 antibody injection and measured 2 hrs post-challenge by ELISA; assay type: functional, organism-based
[5] = target: T2, Dual specificity mitogen-activated protein kinase kinase 4 (Homo sapiens, UniProt P45985); assay: Inhibition of GST-tagged human MKK4 expressed in Escherichia coli (BL21(DE3) pLysS) co-expressing human MEKK catalytic domain using biotinylated and GST-tagged rat GST-KN-SAPKalpha substrate incubated for 2 hrs by time-resolved fluorescence based assay
T2 sequence (P45985 whole entry): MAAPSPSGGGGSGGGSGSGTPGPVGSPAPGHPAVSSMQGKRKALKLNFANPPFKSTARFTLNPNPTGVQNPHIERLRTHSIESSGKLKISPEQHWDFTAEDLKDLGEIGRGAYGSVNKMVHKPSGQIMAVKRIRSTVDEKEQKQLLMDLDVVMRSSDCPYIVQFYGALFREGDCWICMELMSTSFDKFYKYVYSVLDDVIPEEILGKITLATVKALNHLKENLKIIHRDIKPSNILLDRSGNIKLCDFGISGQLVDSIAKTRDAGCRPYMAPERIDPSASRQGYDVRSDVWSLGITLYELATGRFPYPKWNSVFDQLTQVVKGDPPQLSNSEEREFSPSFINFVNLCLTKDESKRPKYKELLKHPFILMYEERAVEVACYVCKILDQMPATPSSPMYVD

SMILES	IC50 [1]	inhibition (Mus musculus [2])	inhibition (Mus musculus [3])	inhibition (Mus musculus [4])	IC50 [5]
Cc1nc(N2CCCCC2)c2c(n1)[nH]c1ccc(C(=O)O)cc12	< 1000 nM	Active	Active	Active	< 1000 nM
Nc1nc(N2CCCCCC2)c2c(n1)[nH]c1ccc(O)cc12	< 1000 nM	Active	Active	Active	< 1000 nM
Cc1nc(N2CCCCC2)c2c(n1)[nH]c1ccc(C(N)=O)cc12	< 1000 nM	Active	Active	Active	< 1000 nM
Cc1nc(NC(C)CO)c2c(n1)[nH]c1ccc(O)cc12 (stereo not given)	< 1000 nM	Active	Active	Active	< 1000 nM
